Results reported in US6498252B1, “Pyrimidine-2,4,6-trione derivatives, processes for their production and pharmaceutical agents containing these compounds” (priority 1999, dated 2002).

Target: T1, MMP-8, catalytic domain (Homo sapiens, UniProt P22894)
T1 construct: Enzyme: 8 nM catalytic domain (Met80-Gly242) of human neutrophil collagenase (MMP-8); made in house
Experiment: Inhibition of MMP-8 (HNC) catalytic domain, fluorogenic substrate cleavage
Assay type: biochemical
Conditions: not given
Experimental: In order to determine the inhibition of MMPs, for example HNC (MMP-8), the catalytic domain (isolation and purification see for example Schnierer, S., Kleine, T., Gote, T., Hillemann, A., Knäuper, V., Tschesche, H.,Biochem. Biophys. Res. Commun. (1993) 191, 319-326) were incubated with inhibitors having various concentrations. Subsequently, the initial reaction rate in the conversion of a standard substrate was measured in a manner analogous to Grams F. et al., FEBS 335 (1993) 76-80).
The results awee evaluated by plotting the reciprocal reaction rate against the concentration of the inhibitor. The inhibition constant (Ki) is obtained as the negative section of the abscissis by the graphical method according to Dixon, M., Biochem. J. (1953) 55, 170-202.
The synthetic collagenase substrate was a heptapeptide which is coupled, at the C terminus, with DNP (dinitrophenol). Said DNP residue quenched by steric hindrance the fluorescence of the adjacent tryptophane of the heptapeptide. After cleavage of a tripeptide which includes the DNP group, the tryptophane fluorescence increased. The proteolytic cleavage of the substrate therefore was measured by the fluorescence value.
The assay was performed at 25° C. in a freshly prepared 50 mM Tris buffer (pH 8.0) treated with dithiozone to remove traces of heavy metals. 4 mM CaCl2 was added and the buffer saturated with argon. Stock solutions of adamalysin II were prepared by centrifugation of the protein from an ammonium sulfate suspension and subsequent dissolution in the assay buffer. Stock solutions of collagenase were diluted with the assay buffer. Enzyme concentrations were determined by uv measurements (ε280=2.8 10^4 M^−1 cm^−1, ε288: 2.2 10^4 M^−. cm^−1) and the stock solutions were stored in the cold. This solution was diluted 1:100 to obtain the final 16 nM assay concentration. The fluorogenic substrate DNP-Pro-Leu-Gly-Leu-Trp-Ala-D-Arg-NH2 with a Km of 52 μM was used at a concentration of 21.4 μM; for the Ki determination a 12.8 μM concentration has also been used. Substrate fluorescence was measured at an excitation and emission wavelength of λ=320 and 420 nm, respectively, on a spectrofluorimeter (Perkin Elmer, Model 650-40) equipped with a thermostated cell holder. Substrate hydrolysis was monitored for 10 minutes. immediately after adding the enzyme. All reactions were performed at least in triplicate. The Ki values-of the inhibitors were calculated from the intersection point of the straight lines obtained by the plots of vo/vi vs. [concentration of inhibitor], whereas IC50 values were calculated from plots of vi/vo [concentration of inhibitor] by non-linear regression with simple robust weighting.
50 mM Tris/HCI pH 7.6 (Tris=Tris-(hydroxymethyl)-aminomethan)
100 mM NaCl/10 mM CaCl2/5% MeOH (ff necessary)
Enzyme: 8 nM catalytic domain (Met80-Gly242) of human neutrophil collagenase (MMP-8)
10 microM DNP-Pro-Leu-Gly-Leu-Trp-Ala-D-Arg-NH2
A solution of the enzyme and inhibitor in assay buffer (25° C.) was prepared. The reaction was started by giving the substrate into the solution. The cleavage of the fluorogenic substrate was followed by fluorescence spectroscopy with an excitation and emission wavelength of 280 and 350 nm, respectively. The IC50 value was calculated as the inhibitor concentration, which is necessary to decrease the velocity of the reaction to the half in comparison to the reaction without inhibitor.
118 cited in the patent application EP0869947

T1 sequence (P22894 100-262 limits assumed): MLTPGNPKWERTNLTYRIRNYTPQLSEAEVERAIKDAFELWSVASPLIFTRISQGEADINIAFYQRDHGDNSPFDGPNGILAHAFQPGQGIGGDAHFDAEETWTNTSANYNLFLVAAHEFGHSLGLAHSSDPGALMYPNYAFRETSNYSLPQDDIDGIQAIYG

Row | Compound | IC50 [nM]
1 | O=C1NC(=O)C(c2ccc(Oc3ccccc3)cc2)(N2CCN(c3ccc(S(=O)(=O)NCC4COC(=O)O4)cc3)CC2)C(=O)N1 (stereo not shown) [Example 6, N-(2-Oxo-[1,3]dioxolan-4-ylmethyl)-4-4-[2,4,6-trioxo-5-(4-phenoxy-phenyl)-hexahydro-pyrimidin-5-yl]-piperazin-1-yl-benzenesulfonamide] | 9
2 | NS(=O)(=O)c1ccc(N2CCN(C3(c4ccc(Oc5ccc(Cl)cc5)cc4)C(=O)NC(=O)NC3=O)CC2)cc1 [Example 5 - no. 9, 4-(4-5-[4-(4-Chloro-phenoxy)-phenyl]-2,4,6-trioxo-hexahydro-pyrimidin-5-yl-piperazin-1-yl)-benzenesulfonamide] | 12
3 | O=C1NC(=O)C(c2ccc(Oc3ccccc3)cc2)(N2CCN(c3ccc(S(=O)(=O)NC(CO)CO)cc3)CC2)C(=O)N1 [Example 5 - no. 12, N-(2-Hydroxy-1-hydroxymethyl-ethyl)-4-4-[2,4,6-trioxo-5-(4-phenoxy-phenyl)-hexahydro-pyrimidin-5-yl]-piperazin-1-yl-benzenesulfonamide] | 5.5
4 | O=C1NC(=O)C(c2ccc(Oc3ccc(Cl)cc3)cc2)(N2CCN(c3ccc(S(=O)(=O)NC(CO)(CO)CO)cc3)CC2)C(=O)N1 [Example 5 - no. 19, 4-(4-5-[4-(4-Chloro-phenoxy)-phenyl]-2,4,6-trioxo-hexahydro-pyrimidin-5-yl-piperazin-1-yl)-N-(2-hydroxy-1,1-bis-hydroxymethyl-ethyl)-benzenesulfonamide] | 9
5 | O=C1NC(=O)C(c2ccc(Oc3ccc(Cl)cc3)cc2)(N2CCN(c3ccc(S(=O)(=O)N(CCO)CCO)cc3)CC2)C(=O)N1 [Example 5 - no. 10, 4-(4-5[-4-(4-Chloro-phenoxy)-phenyl]-2,4,6-trioxo-hexahydro-pyrimidin-5-yl-piperazin-1-yl)-N,N-bis-(2-hydroxy-ethyl)-benzenesulfonamide] | 9
6 | O=C1NC(=O)C(c2ccc(Oc3ccccc3)cc2)(N2CCN(c3ccc(S(=O)(=O)NCC(O)CO)cc3)CC2)C(=O)N1 (stereo not shown) [Example 5 - no. 11, N-(2,3-Dihydroxy-propyl)-4-4-[2,4,6-trioxo-5-(4-phenoxy-phenyl)-hexahydro-pyrimidin-5-yl]-piperazin-1-yl-benzenesulfonamide] | 4.5
7 | O=C1NC(=O)C(c2ccc(Oc3ccccc3)cc2)(N2CCN(c3ccc(S(=O)(=O)NCCOCCOCCO)cc3)CC2)C(=O)N1 [Example 5 - no. 13, N-2-[2-(2-Hydroxy-ethoxy)-ethoxy]-ethyl-4-4-[2,4,6-trioxo-5-(4-phenoxy-phenyl)-hexahydro-pyrimidin-5-yl]-piperazin-1-yl-benzenesulfonamide] | 6

Same assay, conditions: catalytic domain of human neutrophil collagenase (MMP-8); substrate DNP-Pro-Leu-Gly-Leu-Trp-Ala-D-Arg-NH2; 25° C.; read-out: IC50 Values of MMP-Inhibitor (vs. MMP-8, catalytic domain)

Row | Compound | IC50 [nM]
8 | O=C1NC(=O)C(c2ccc(Oc3ccccc3)cc2)(N2CCN(c3ccc(S(=O)(=O)NC(CO)(CO)CO)cc3)CC2)C(=O)N1 [Example 5 - no. 18, N-(2-Hydroxy-1,1-bis-hydroxymethyl-ethyl)-4,4-[2,4,6-trioxo-5-(4-phenoxy-phenyl)-hexahydro-pyrimidin-5-yl]-piperazin-1-yl-benzenesulfonamide] | 13
9 | O=C1NC(=O)C(c2ccc(Oc3ccc(Cl)cc3)cc2)(N2CCN(c3ncccn3)CC2)C(=O)N1 [Example 1, 5-(4-(4-Chloro-phenoxy)-phenyl)-5-(4-pyrimidine-2-yl-piperazine)-pyrimidine-2,4,6-trione] | 10
10 | O=C1NC(=O)C(c2ccc(Oc3ccc(Cl)c(Cl)c3)cc2)(N2CCN(c3cnccn3)CC2)C(=O)N1 [Example 3 - no. 2, 5-[4-(3,4-Dichloro-phenoxy)-phenyl]-5-(2,3,5,6-tetrahydro-[1,2′]bipyrazinyl-4-yl)-pyrimidine-2,4,6-trione] | 2
11 | NS(=O)(=O)c1ccc(N2CCN(C3(c4ccc(Oc5ccc(Br)cc5)cc4)C(=O)NC(=O)NC3=O)CC2)cc1 [Example 5 - no. 6, 4-(4-5-[4-(4-Bromo-phenoxy)-phenyl]-2,4,6-trioxo-hexahydro-pyrimidin-5-yl-piperazin-1-yl)-benzenesulfonamide] | 2.8
12 | O=C1NC(=O)C(c2ccc(Oc3ccc(Cl)c(Cl)c3)cc2)(N2CCN(c3ncccn3)CC2)C(=O)N1 [Example 3 - no. 1, 5-[4-(3,4-Dichloro-phenoxy)-phenyl]-5-(4-pyrimidin-2-yl-piperazin-1-yl)-pyrimidine-2,4,6-trione] | 4
13 | O=C1NC(=O)C(c2ccc(Oc3ccc(Br)cc3)cc2)(N2CCN(c3ncccn3)CC2)C(=O)N1 [Example 3 - no. 15, 5-[4-(4-Bromo-phenoxy)-phenyl]-5-(4-pyrimidin-2-yl-piperazin-1-yl)-pyrimidine-2,4,6-trione] | 4
14 | CN(C)CCNS(=O)(=O)c1ccc(N2CCN(C3(c4ccc(Oc5ccc(Br)cc5)cc4)C(=O)NC(=O)NC3=O)CC2)cc1 [Example 5 - no. 7, 4-(4-5-[4-(4-Bromo-phenoxy)-phenyl]-2,4,6-trioxo-hexahydro-pyrimidin-5-yl-piperazin-1-yl)-N-(2-dimethylamino-ethyl)-benzenesulfonamide] | 13
15 | O=C1NC(=O)C(c2ccc(Oc3ccc(Cl)cc3)cc2)(N2CCN(c3ccc(S(=O)(=O)NCCO)cc3)CC2)C(=O)N1 [Example 4, 4-(4-5-[4-(4-Chloro-phenoxy)-phenyl]-2,4,6-trioxo-hexahydro-pyrimidin-5-yl-piperazin-1-yl)-N-(2-hydroxy-ethyl)-benzenesulfonamide] | 10
16 | O=C1NC(=O)C(c2ccc(Oc3ccc(Cl)cc3)cc2)(N2CCN(c3cnccn3)CC2)C(=O)N1 [Example 2] | 4
